Measured values published in the Deep4Chem optical property database.
One block for each compound: values may come before it.

Assay: solvent given as SMILES
[1] = in c1cc(-c2cccc(-n3c4ccccc4c4ccccc43)c2)cc(-n2c3ccccc3c3ccccc32)c1
[2] = in O=P(c1ccccc1)(c1ccccc1)c1ccccc1Oc1ccccc1P(=O)(c1ccccc1)c1ccccc1

SMILES: COC(=O)C(Cc1ccc2oc(-c3ccncc3)nc2c1)NC(=O)OC(C)(C)C (stereo not given)
- emission maximum (in CC1CCCCC1): 356.74 nm
- emission maximum (in CC#N): 374.95 nm
- emission maximum (in CO): 384.74 nm

SMILES: CN1CCN(CCCN2c3ccccc3Sc3ccc(C(F)(F)F)cc32)CC1
- emission maximum (in CC#N): 470 nm
- emission maximum (in CO): 467 nm
- emission maximum (in O): 482 nm

SMILES: O=c1oc2ccc3ccccc3c2nc1-c1ccc(Cl)cc1
- emission maximum (in c1ccccc1): 465 nm

SMILES: Cc1nnc(-c2ccc(-n3c4ccccc4c4ccccc43)cc2)o1
- emission maximum (in CCO): 440 nm
- emission maximum (in Cc1ccccc1): 372 nm

SMILES: CC(C)[Si]1(C(C)C)c2cc(C=O)ccc2-c2ccc(N(C)C)cc21
- emission maximum (in C1CCCCC1): 414 nm
- emission maximum (in CC#N): 528 nm
- emission maximum (in CCO): 565 nm
- emission maximum (in CCOCC): 449 nm
- emission maximum (in CS(C)=O): 541 nm
- emission maximum (in ClCCl): 501 nm
- emission maximum (in c1ccccc1): 450 nm

SMILES: CCCCCCOc1ccc2c(c1)-c1cc3c(cc1[Si]2(C)C)-c1ccccc1[Si]3(C)C
- emission maximum (in ClCCl): 387 nm

SMILES: CC1(C)OB(c2cc3ccc4cc(B5OC(C)(C)C(C)(C)O5)cc5ccc(c2)c3c45)OC1(C)C
- emission maximum (in Cc1ccccc1): 400 nm

SMILES: CCN1C(=O)C(C2C(=O)c3c4ccccc4cc4cc5ccccc5c2c34)C(=O)N(CC)C1=S (stereo not given)
- emission maximum (in C1CCOC1): 571 nm
- emission maximum (in CCCCCC): 544 nm
- emission maximum (in Cc1ccccc1): 564 nm
- emission maximum (in ClCCl): 582 nm

SMILES: CCCCCCc1ccc(/C=C/c2ccc(CCCCCC)s2)s1
- emission maximum (in Cc1ccccc1): 416 nm

SMILES: O=C(c1ccc(N2c3ccccc3Oc3ccccc32)cc1)c1cccc(C(=O)c2ccc(N3c4ccccc4Oc4ccccc43)cc2)c1
- emission maximum (in Cc1ccccc1): 566 nm
- emission maximum [1]: 541 nm

SMILES: c1ccc2c(c1)c1ccccc1n2-c1ccc(-c2nnc(-c3ccc(-n4c5ccccc5c5ccccc54)cc3)o2)cc1
- emission maximum (in Cc1ccccc1): 386 nm
- emission maximum [2]: 414 nm

SMILES: O=C(c1ccncc1)c1ccc(-n2c3ccccc3c3ccccc32)cc1
- emission maximum (in Cc1ccccc1): 440 nm
- emission maximum [1]: 457.34 nm

SMILES: CC1(C)c2ccccc2-c2cc3c(cc21)c1ccccc1n3-c1cccnc1
- emission maximum (in ClCCl): 373 nm

SMILES: Cn1c(=O)c(/N=N/c2ccc(Nc3ccc([N+](=O)[O-])cc3S(=O)(=O)O)cc2)c(O)c2ccccc21
- emission maximum (in C1CCOC1): 615 nm
- emission maximum (in CC(C)=O): 617 nm
- emission maximum (in CCOC(C)=O): 610 nm
- emission maximum (in CO): 619 nm
- emission maximum (in CS(C)=O): 622 nm
- emission maximum (in Cc1ccccc1): 605 nm
- emission maximum (in ClCCl): 617 nm
- emission maximum (in O): 636 nm

SMILES: CN(C)c1ccc(/C=C/c2cc[n+](CCCCC[n+]3ccc(/C=C/c4ccc(N(C)C)cc4)cc3)cc2)cc1
- emission maximum (in CC1COC(=O)O1): 603 nm
- emission maximum (in CC#N): 605 nm
- emission maximum (in CC(C)=O): 604 nm
- emission maximum (in CC(C)O): 593 nm
- emission maximum (in CCO): 598 nm
- emission maximum (in CN(C)C=O): 607 nm
- emission maximum (in CO): 600 nm
- emission maximum (in CS(C)=O): 610 nm
- emission maximum (in ClC(Cl)Cl): 574 nm
- emission maximum (in O): 597 nm
- emission maximum (in c1ccncc1): 596 nm

SMILES: CC(C)(C)c1ccc2c(c1)c1cc(C(C)(C)C)ccc1n2-c1ccc(N(c2ccc(-c3ccc4c(c3)C(C)(C)c3cc(-c5ccc(N(c6ccc(-n7c8ccc(C(C)(C)C)cc8c8cc(C(C)(C)C)ccc87)cc6)c6ccc(-n7c8ccc(C(C)(C)C)cc8c8cc(C(C)(C)C)ccc87)cc6)cc5)ccc3-4)cc2)c2ccc(-n3c4ccc(C(C)(C)C)cc4c4cc(C(C)(C)C)ccc43)cc2)cc1
- emission maximum (in ClCCl): 443 nm

SMILES: N#Cc1c(N2CCCC2)cc(-c2ccccc2)c2c1-c1cccc3cccc-2c13
- emission maximum (in O): 550 nm

SMILES: c1ccc(-c2nc(-c3ccccc3)nc(-c3cc(-n4c5ccccc5c5ccccc54)c(-n4c5ccccc5c5ncccc54)c(-n4c5ccccc5c5ccccc54)c3)n2)cc1
- emission maximum (in C1CCOC1): 481.97 nm
- emission maximum (in CC#N): 535.03 nm
- emission maximum (in CCCCCC): 422.11 nm
- emission maximum (in Cc1ccccc1): 447.02 nm
- emission maximum (in ClCCl): 507.14 nm

SMILES: CCCCCCCCCCn1nnc(-c2ccc(C#Cc3ccc(C#Cc4ccc(-c5nnn(CCCCCCCCCC)n5)cc4)c4nc5c6ccccc6c6ccccc6c5nc34)cc2)n1
- emission maximum (in C1CCOC1): 495 nm
- emission maximum (in Cc1ccccc1): 488 nm
- emission maximum (in ClCCl): 502 nm

SMILES: COC(=O)c1c(C(=O)OC)c2ccc(-c3ccccc3)nn2c1C
- emission maximum (in CCCCCC): 471 nm

SMILES: Cc1c(C)c(B(c2c(C)c(C)c(N3c4ccccc4Oc4ccccc43)c(C)c2C)c2c(C)c(C)c(N3c4ccccc4Oc4ccccc43)c(C)c2C)c(C)c(C)c1C#N
- emission maximum (in c1ccc([Si](c2ccccc2)(c2ccc(-n3c4ccccc4c4ccccc43)cc2)c2ccc(-n3c4ccccc4c4ccccc43)cc2)cc1): 517 nm

SMILES: CC(C)(C)c1ccc2c(c1)c1cc(C(C)(C)C)ccc1n2-c1ccc(S(=O)(=O)c2ccc(-n3c4ccc(C(C)(C)C)cc4c4cc(C(C)(C)C)ccc43)cc2)cc1
- emission maximum (in Cc1ccccc1): 404 nm
- emission maximum [2]: 423 nm

SMILES: N#CC(C#N)=Cc1ccc(-c2cccc(-c3nc4ccccc4s3)c2O)o1
- emission maximum (in CCO): 631 nm
- emission maximum (in ClCCl): 605 nm
- emission maximum (in O): 635 nm

SMILES: COC(=O)C(NC(=O)OC(C)(C)C)c1ccc2oc(-c3ccc(F)cc3)nc2c1 (stereo not given)
- emission maximum (in CC1CCCCC1): 320 nm
- emission maximum (in CC#N): 341 nm
- emission maximum (in CO): 342 nm

SMILES: CC[B-]1(CC)c2cccc3cc4ccccc4c(c23)-c2cccc(C)[n+]21
- emission maximum (in ClCCl): 538 nm

SMILES: O=C1NC(c2ccccc2)=C/C1=C\c1ccccc1
- emission maximum (in C1COCCO1): 539 nm

SMILES: Cc1ccc(C2=C3C=CC(c4ccccc4)=[N+]3[B-](F)(F)n3c(Cl)ccc32)cc1
- emission maximum (in C1CCCCC1): 553 nm
- emission maximum (in C1CCOC1): 555 nm
- emission maximum (in C1COCCO1): 554 nm
- emission maximum (in CCOC(C)=O): 551 nm
- emission maximum (in CO): 549 nm
- emission maximum (in Cc1ccccc1): 558 nm
- emission maximum (in ClC(Cl)Cl): 555 nm

SMILES: CC1(C)CC(NCc2ccc3ccc4cccc5ccc2c3c45)CC(C)(C)N1
- emission maximum (in C1CCCCC1): 375 nm
- emission maximum (in CC#N): 375 nm
- emission maximum (in CO): 375 nm
- emission maximum (in ClC(Cl)Cl): 396 nm

SMILES: Cc1nc2cccc(-c3nc4ccccc4s3)c2c(=O)[nH]1
- emission maximum (in CN(C)C=O): 416 nm

SMILES: CN(C)c1ccc(-c2nc3c(c4c2-c2ccccc2CC4)-c2ccccc2CC3)cc1
- emission maximum (in C1CCOC1): 452 nm
- emission maximum (in CC#N): 463 nm
- emission maximum (in CCCCCC): 422 nm
- emission maximum (in CCOC(C)=O): 449 nm
- emission maximum (in CO): 460 nm
- emission maximum (in CS(C)=O): 470 nm
- emission maximum (in Cc1ccccc1): 436 nm
- emission maximum (in ClCCl): 449 nm

SMILES: CN(C)c1ccc(/C=C/c2nc3c(ccc4ccccc43)s2)cc1
- emission maximum (in C1CCCCC1): 468 nm
- emission maximum (in CC#N): 524 nm

SMILES: CC(C)(C)c1ccc2c3ccccc3c3cncnc3c2c1
- emission maximum (in ClCCl): 376 nm

SMILES: CCCCCCc1ccsc1-c1ccc(-c2sc(C(=O)O)cc2CCCCCC)s1
- emission maximum (in CC(C)=O): 468 nm
- emission maximum (in CCCCCC): 458 nm
- emission maximum (in CCO): 451 nm
- emission maximum (in CO): 451 nm
- emission maximum (in ClCCl): 479 nm
- emission maximum (in O): 490 nm

The remaining lines, values ahead:

- emission maximum (in ClCCl): 441 nm
SMILES: CCCCn1c(-c2ccc(-c3nnc(-c4ccccc4)o3)cc2)nc(-c2ccccc2)c1-c1ccccc1

- emission maximum (in CO): 586 nm
SMILES: COc1ccc(-c2cc(B(c3c(C)cc(C)cc3C)c3c(C)cc(C)cc3C)c(-c3sc(-c4ccc(OC)cc4)cc3P(=O)(c3ccccc3)c3ccccc3)s2)cc1

- emission maximum (in CN(C)C=O): 401 nm
SMILES: Cc1cc(-c2ccc(-c3nc4ccccc4[nH]3)cc2)c(C)cc1-c1ccc(-c2nc3ccccc3[nH]2)cc1

- emission maximum (in C1CCCCC1): 417 nm
- emission maximum (in CC#N): 427 nm
- emission maximum (in CCO): 434 nm
- emission maximum (in ClCCl): 428 nm
SMILES: O=P1(c2ccccc2)c2ccccc2-c2sc3ccccc3c21 (stereo not given)

- emission maximum (in ClC(Cl)Cl): 793 nm
SMILES: CC(C)(C)c1ccc(C2=c3sc(-c4ccc(C(C)(C)C)cc4)cc3=[N+]3C2=Nc2c(-c4ccc(C(C)(C)C)cc4)c4sc(-c5ccc(C(C)(C)C)cc5)cc4n2[B-]3(F)F)cc1

- emission maximum (in CC#N): 465 nm
- emission maximum (in ClCCCl): 463 nm
SMILES: c1ccc(-c2cc(-c3ccccc3)[o+]c(-c3ccccc3)c2)cc1

- emission maximum (in C1CCOC1): 395 nm
SMILES: CCC1(CC)c2ccccc2-c2c1c1c(c3c2C(CC)(CC)c2cc(/C=C/c4cccs4)ccc2-3)C(CC)(CC)c2ccccc2-1

- emission maximum (in ClCCl): 526 nm
SMILES: CCCCCCCCCCCCN1C(=O)c2c(c3ccc4cc(-c5ccccc5)c(OC)cc4c3c3c2ccc2cc(-c4ccccc4)c(OC)cc23)C1=O

- emission maximum (in CCCCCCC): 410 nm
SMILES: c1cc2c3c(cccc3c1)-c1cc3c(ccc4ccccc43)cc1-2

- emission maximum (in O): 397 nm
SMILES: CCCCn1c(-c2ccc(-c3ccc(-c4ccc(-c5n(CCCC)c6cc(C)ccc6[n+]5CCCC)cc4)cc3)cc2)[n+](CCCC)c2ccc(C)cc21

- emission maximum (in C1CCOC1): 412 nm
SMILES: CC(C)(C)c1ccc(-c2c(-c3cccc(-n4c5ccccc5c5ccccc54)c3)c(C#N)c(-c3cccc(-n4c5ccccc5c5ccccc54)c3)c(-c3ccc(C(C)(C)C)cc3)c2-c2ccc(C(C)(C)C)cc2)cc1

- emission maximum (in ClCCl): 459 nm
SMILES: COc1ccc(C#Cc2nc(C#Cc3ccc(OC)cc3)c(C#Cc3ccc(OC)cc3)c(C#Cc3ccc(OC)cc3)c2C#Cc2ccc(OC)cc2)cc1

- emission maximum (in C1CCOC1): 510 nm
SMILES: C(=C\c1cc2ccccc2c2ccccc12)/c1c2ccccc2cc2ccccc12

- emission maximum (in C1CCCCC1): 417 nm
SMILES: COc1ccc(C2=C(c3ccc(OC)cc3)C(C)(C)c3cc(-c4ccccc4)ccc32)cc1

- emission maximum (in C1CCCCC1): 396 nm
SMILES: C1=C(c2ccccc2)B(c2ccccc2)Nc2c1ccc1ccccc21

- emission maximum (in CCO): 464 nm
- emission maximum (in ClC(Cl)Cl): 450 nm
SMILES: COc1ccc2c(-c3nc(-c4cccc(C)c4)no3)cc(=O)oc2c1

- emission maximum (in C1CCOC1): 462 nm
SMILES: N#Cc1c(N2CCCCC2)cc(-c2ccc3ccccc3c2)c2c1-c1ccccc1C2

- emission maximum (in CO): 558 nm
SMILES: Cc1cc(C)c(B(c2cc(-c3ccccc3)sc2-c2sc(-c3ccccc3)cc2P(=O)(c2ccccc2)c2ccccc2)c2c(C)cc(C)cc2C)c(C)c1

- emission maximum (in CO): 548 nm
SMILES: Cc1cc(C)c(B(c2cc(-c3ccc(C(F)(F)F)cc3)sc2-c2sc(-c3ccc(C(F)(F)F)cc3)cc2P(=O)(c2ccccc2)c2ccccc2)c2c(C)cc(C)cc2C)c(C)c1

- emission maximum (in C1CCOC1): 428 nm
SMILES: CCCCCCCCCc1c2ccccc2cc2c1oc1c3oc4c5oc6cc7ccccc7cc6c5c5ccccc5c4c3c3ccccc3c21
